Assay results taken from US10815197B2, “N-sulfonyl benzamides as voltage-gated sodium channel inhibitors” (SHANGHAI HAIYAN PHARMACEUTICAL TECHNOLOGY CO., LTD., priority 2016, dated 2020).
Entries after “also recorded” stand apart in the source; their conditions may differ.

Tests used:
[1] = test system: SNL-induced cold allodynia in rats; assay: Cold allodynia in SNL (spinal nerve ligation) rats; type: in vivo, rat
Source text: Assay 3: Cold Allodynia in SNL
The experimental animals were male Sprague-Dawley rats, weighing 140-150 g at the beginning of the experiment. The animals were purchased from Slack company, and food and water were supplied ad lib after purchase. Rats were group-housed, four rats/cage, and individually identified by marking on the tail.
Test Compound and Grouping:
Vehicle: 5% dimethylacetamide(Sinopharm Technology), 5% solutol (Sigma) and 90% saline
Positive control: Pregabalin;
Test compound: compound Z-164;
The positive control and solvent composition of the test compound are 5% dimethylacetamide, 5% solutol and 90% saline.
30 mg/kg Compound Z-164:1.23 mL of dimethylacetamide was added to 148.11 mg of compound Z-164, stirred well until fully dissolved, and then 1.23 mL solutol was added and mixed well. Final volume was made up with 90% saline to 21.44 mL and mixed well before oral administration.
30 mg/kg Pregabalin: 1.08 mL of dimethylacetamide was added to 129.48 mg of Pregabalin, stirred well until fully dissolved, and then 1.08 mL solutol was added and mixed well. Final volume was made up with 90% saline to 21.58 mL and mixed well before oral administration.
1.1. Spinal Nerve Ligation (SNL) model • Surgical procedures are performed aseptically. • The surgical instruments (scissors, tweezers, scalpels, surgical cotton, sutures, retractor) are sterilized prior to surgery. • Animals were anesthetized with pentobarbital (50 mg/kg, i.p.). A toe pinch was used to ensure that the animals were fully anesthetized prior to surgery. Put ophthalmic ointment in the animal's eyes to prevent the corneas from drying out. • The fur on the surgical area of animal's lower body was shaved, and the skin of the surgical area was swabbed with 3 rounds of Betadine and 70% ethanol. The skin was allowed to dry before surgery. • A longitudinal incision will be made by scalpel at the lower lumbar and sacral levels, exposing the paraspinal muscles on the left side. The retractor was used to separate the muscles and tissues to expose the vertebra. • The left L5 and L6 spinal nerves will be isolated and tightly ligated with 6-0 silk thread. • The wound was closed with sutures. • The surgical instruments were cleaned, and sterilized by using a glass bead sterilizer. • Animals were placed on the electric blanket after surgery. Inject 5 ml sterile saline to prevent dehydration. The animals were returned to their home cage after fully awake (walking around).
1.2. Baseline Test of Cold Allodynic and Grouping
The baseline of cold allodynic was measured in rats two days before dosing. Use a pipette to apply 100 μl of acetone to the animal's lateral hind paw skin and the time of slapping, flinching, lifting, licking of the affected paw were recorded for one minute. Acetone was applied twice in total and the two applications were 10 minutes apart. The sum of the two times was recorded as cold allodynic time in rats. The rats were grouped randomized according to the results of baseline test of cold allodynic the day before dosing.
1.3. Cold Allodynic Testing
A pipette was used to apply 100 μl of acetone to the animal's lateral hind paw skin two hours after dosing and the time of slapping, flinching, lifting, licking of the affected paw were recorded for one minute. Acetone was applied twice and the two applications were 10 minutes apart. The sum of the two times was recorded as cold allodynic time in rats.
Oral administration was performed two hours before cold allodynic testing.
1.5. Data Collection and Analysis
Data were collected with Excel and analyzed with Prism.

hCav3.2 = target: T1, hCav3.2 (Homo sapiens, UniProt O95180); assay: Manual patch clamp experiment of hCav3.2 channel (HEK-hCav3.2); type: cell-based; conditions: read-out: Cav3.2(IC50/nM)
T1 construct: host or cells: HEK
Procedure: Manual Patch Clamp Experiment of hCav3.2 Channel: The stable cell line HEK-hCav3.2 used for manual patch clamp experiments was from WuXi Apptec (Shanghai) Company. […] Composition of extracellular fluid (millimoles) in the experiment: HEPES 10, CsCl 6, CaCl2) 2, TEA-Cl 140. The pH was adjusted to 7.4 with CsOH, while the osmotic pressure was adjusted to 310-320 mOsm with sucrose, filtered and stored at 4° C. Composition of the intracellular fluid (millimoles): HEPES 10, CsCl 55, CsSO4 75, MgCl2 10, EGTA 0.1. The pH was adjusted to 7.2 with CsOH, while the osmotic pressure was adjusted to 280-290 mOsm with sucrose, filtered and stored at −20° C. […] Manual Patch Clamp Experiment: The cell suspension was added to a 35 mm petri dish and placed on an inverted microscope stage. The cells were perfused with an extracellular fluid and the flow rate was 1-2 mL/min after cell adherence. […] The stimulation program was repeated every 15 s and recorded continuously. The inhibitory effect of the compound was calculated by the change of the current before and after dosing, and the IC50 value was fitted by the Hill equation.

[2] = 30 mg/kg p.o., two hours after dosing

T1 sequence (O95180 whole entry): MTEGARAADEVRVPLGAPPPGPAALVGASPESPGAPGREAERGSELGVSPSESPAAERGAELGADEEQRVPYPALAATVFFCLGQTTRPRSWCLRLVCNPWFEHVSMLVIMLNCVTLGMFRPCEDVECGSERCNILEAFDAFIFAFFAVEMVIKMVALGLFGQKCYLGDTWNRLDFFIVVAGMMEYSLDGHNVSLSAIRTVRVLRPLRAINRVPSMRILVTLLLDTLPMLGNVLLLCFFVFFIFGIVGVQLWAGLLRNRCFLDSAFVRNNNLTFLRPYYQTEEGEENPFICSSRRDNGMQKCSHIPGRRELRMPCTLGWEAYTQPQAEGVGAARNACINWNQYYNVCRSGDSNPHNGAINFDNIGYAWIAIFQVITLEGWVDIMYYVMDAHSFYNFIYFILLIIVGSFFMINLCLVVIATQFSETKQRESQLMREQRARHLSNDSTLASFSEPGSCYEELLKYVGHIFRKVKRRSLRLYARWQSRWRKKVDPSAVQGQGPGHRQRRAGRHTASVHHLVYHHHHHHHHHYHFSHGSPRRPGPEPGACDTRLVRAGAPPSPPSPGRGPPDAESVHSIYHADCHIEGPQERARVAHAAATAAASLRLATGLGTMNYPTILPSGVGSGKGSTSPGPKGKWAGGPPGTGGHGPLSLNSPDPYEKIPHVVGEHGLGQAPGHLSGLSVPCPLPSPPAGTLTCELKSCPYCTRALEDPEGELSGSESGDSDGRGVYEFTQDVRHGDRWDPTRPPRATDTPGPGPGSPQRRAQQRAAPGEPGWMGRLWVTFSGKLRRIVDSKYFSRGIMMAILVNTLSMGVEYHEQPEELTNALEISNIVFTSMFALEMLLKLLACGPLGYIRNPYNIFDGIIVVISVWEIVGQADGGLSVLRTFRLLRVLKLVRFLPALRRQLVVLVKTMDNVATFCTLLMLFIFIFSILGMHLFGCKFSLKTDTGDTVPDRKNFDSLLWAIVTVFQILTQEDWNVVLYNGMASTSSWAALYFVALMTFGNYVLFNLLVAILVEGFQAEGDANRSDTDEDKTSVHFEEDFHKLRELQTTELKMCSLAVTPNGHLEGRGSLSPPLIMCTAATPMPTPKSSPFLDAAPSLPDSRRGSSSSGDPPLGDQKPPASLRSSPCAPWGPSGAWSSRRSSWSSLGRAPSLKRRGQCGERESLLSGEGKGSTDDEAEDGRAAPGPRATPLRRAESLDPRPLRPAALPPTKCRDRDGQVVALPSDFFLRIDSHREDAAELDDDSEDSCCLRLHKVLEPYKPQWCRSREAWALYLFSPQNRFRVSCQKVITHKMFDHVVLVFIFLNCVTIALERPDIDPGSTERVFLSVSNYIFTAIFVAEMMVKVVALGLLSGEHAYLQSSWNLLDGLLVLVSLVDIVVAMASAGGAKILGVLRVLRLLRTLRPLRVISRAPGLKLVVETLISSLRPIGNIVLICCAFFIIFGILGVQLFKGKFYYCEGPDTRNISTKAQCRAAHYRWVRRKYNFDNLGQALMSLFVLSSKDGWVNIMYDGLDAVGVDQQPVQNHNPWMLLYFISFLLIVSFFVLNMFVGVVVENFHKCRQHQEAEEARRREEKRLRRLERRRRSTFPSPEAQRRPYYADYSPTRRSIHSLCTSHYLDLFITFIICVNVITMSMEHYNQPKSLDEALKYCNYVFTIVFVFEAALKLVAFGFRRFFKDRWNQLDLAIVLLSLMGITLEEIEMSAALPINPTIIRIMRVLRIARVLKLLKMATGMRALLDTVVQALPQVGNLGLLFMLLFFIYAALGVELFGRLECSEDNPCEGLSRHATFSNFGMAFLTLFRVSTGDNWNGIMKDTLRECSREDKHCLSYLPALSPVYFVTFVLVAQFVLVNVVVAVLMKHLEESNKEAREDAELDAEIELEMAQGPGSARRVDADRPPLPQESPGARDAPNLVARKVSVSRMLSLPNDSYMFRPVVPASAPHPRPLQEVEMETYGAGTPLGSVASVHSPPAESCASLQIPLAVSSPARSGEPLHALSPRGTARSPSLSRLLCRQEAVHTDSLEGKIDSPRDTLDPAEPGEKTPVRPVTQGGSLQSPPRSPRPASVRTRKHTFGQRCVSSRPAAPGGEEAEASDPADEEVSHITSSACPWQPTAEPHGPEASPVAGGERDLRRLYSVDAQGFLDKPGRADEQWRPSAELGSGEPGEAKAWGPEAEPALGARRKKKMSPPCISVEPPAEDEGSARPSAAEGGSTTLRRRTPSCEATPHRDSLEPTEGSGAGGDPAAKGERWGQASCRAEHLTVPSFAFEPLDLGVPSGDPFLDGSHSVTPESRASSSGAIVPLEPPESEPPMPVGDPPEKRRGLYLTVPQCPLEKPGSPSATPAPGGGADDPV

IC50 (hCav3.2): > 30000 nM
Compound: Cc1cc(N2CCN(Cc3cc(F)c(C(=O)NS(=O)(=O)C4CC4)cc3Cl)CC2)ccc1Cl [Compound Z-164]
Anti-allodynia Effect (mean, %) [1, 2]: 39.7%
Response duration (mean, s) the next day (Baseline) [1, 2]: 24.327 s
inhibition of SNL-induced cold allodynia (in words) ([1]; 30 mg/kg, 2 hr post oral administration): statistically significant inhibitory effect; also recorded: inhibition of SNL-induced cold allodynia
Response duration (mean, s) the first day (Baseline) ([1]; acetone cold allodynia, baseline before dosing): 36.831 s
